Experimental data from PMC7320011, “Rationally designed ruthenium complexes for 1- and 2-photon photodynamic therapy” (Nature Communications, 2020).
Several values for one entry are separate records, joined by “and”; a condition that tells them apart may be missing. Equal entries are not always repeated. Where two headings read alike, the source gives them in different places.

Key:
[1] = Singlet oxygen quantum yield, indirect evaluation (1O2 scavenger absorbance); format: physicochemical
Procedure: Indirect evaluation: measurement in acetonitrile: the sample was prepared in an air-saturated acetonitrile solution with an absorption of 0.2 at the irradiation wavelength, N,N-dimethyl-4-nitrosoaniline aniline (RNO, 24 µM) and imidazole (12 mM). Measurement in PBS buffer: the sample was prepared in an air-saturated PBS solution containing the complex with an absorption of 0.2 at the irradiation wavelength, N,N-dimethyl-4-nitrosoaniline aniline (RNO, 20 µM) and histidine (10 mM). The samples were irradiated for various time points with an Atlas Photonics LUMOS BIO irradiator. The absorption of the samples was constantly monitored with a SpectraMax M2 Microplate Reader (Molecular Devices). The difference in absorption (A0 − A) at 420 nm for the measurement in acetonitrile or at 440 nm for the measurement in PBS was determined. The difference in absorption was then plotted against the irradiation times and the slope of the linear regression calculated. The absorption of the sample was corrected with an absorption correction factor. The singlet oxygen quantum yields were calculated using the same formulas as used for the direct evaluation.

Photobleaching by NMR = format: physicochemical; conditions: 450 nm, 10 min, 13.2 J cm^−2, CD3CN
Procedure: The sample was dissolved in air saturated 0.7 mL CD3CN and stored in a NMR tube in the dark. A ^1H-NMR spectrum was measured directly after preparation to ensure the identity of the sample. The sample was then irradiated at 450 nm with an Atlas Photonics LUMOS BIO irradiator (10 min, 13.2 J cm^−2). Following this treatment, a ^1H-NMR spectrum was again measured.

[2] = test system: noncancerous retinal pigment epithelium (RPE-1) cells; test: (Photo-)cytotoxicity on 2D cell monolayers, RPE-1; conditions: for PI (480 nm): RPE-1, dark vs 480 nm; for PI (540 nm): RPE-1, dark vs 540 nm; for IC50: 1-3 as chloride salts
HeLa MCTS = test: (Photo-)cytotoxicity on 3D MCTS (ATP concentration); format: cell-based, human; conditions: for IC50: 1-3 as chloride salts
Procedure: The cytotoxicity of the compounds in 3D MCTS was assessed by measurement of the ATP concentration. MCTS were treated with increasing concentrations of the compound (2% DMSO, v%) by replacing 50% of the media with drug supplemented media and incubation for 12 h. After this time, the MCTS were divided in three identical groups. The first group was strictly kept in the dark. The second group was exposed to a 1-Photon irradiation (500 nm, 16.7 min, 10.0 mW cm^−2, and 10 J cm^−2) using a LED light source and the third group was exposed to a 2-Photon irradiation (800 nm, 10 J cm^−2 with a section interval of 5 μm) using a LSM 880 (Carl Zeiss, Germany) laser scanning confocal microscope equipped with a Coherent Chameleon 2-Photon laser. After the irradiation, all groups were incubated additional 48 h. The ATP concertation was measured using a CellTiter-Glo 3D Cell Viability kit (Promega) by measuring the generated chemiluminescence with an infinite M200 PRO (Tecan) plate reader.

[3] = In vivo time-dependent biodistribution (ICP-MS); design: species or system mouse; conditions: chloride salt, SW620/AD300 tumor-bearing nude mice
Procedure: (§1) Six weeks old nu/nu female mice were purchased from Charles River. For the tumor xenograft, 6 × 10^6 SW620/AD300 cells were subcutaneously (s.c.) injected with a 150 μL Matrigel and saline (1:1, v/v) suspension into the mice. After a week, the tumor volumes of the mice reached ~80 mm^3. All experiments were conducted in compliance with the ethical regulations for animal testing and received approval of the experimental animal managing committee of Sun Yat Sen University.
Three nude mice were tail-intravenous (i.v.) injected with 2 mg kg^−1 of the sample. One hour later, the mice were sacrificed and the major organs (including the heart, liver, spleen, lung, kidney, brain, intestine, and blood) were separated, weighted and ground. The grinded organ as well as the blood were digested using a 60% HNO3 solution for 3 days, and following this, diluted to a 2% HNO3 solution in water. The Ru content was determined with an ICP-MS apparatus and the results compared with the Ru references.
Six SW620/AD300 nude tumor-bearing nude mice were separated into three groups, and i.v. injected with 2 mg kg^−1 of the sample. 30 min, 1 h, 2 h later, the mice were euthanized and the distribution of the sample determined using the previous described method.

[4] = test system: doxorubicin-selected P-gp-overexpressing human colon cancer tumor (SW620/AD300); test: In vivo PDT on tumor-bearing nude mice; design: species or system mouse; conditions: chloride salt, 2 mg kg^−1 i.v.
Procedure: as §1
30 SW620/AD300 nude tumor-bearing nude mice were randomly separated into six groups, resulting in five mice for each group. After been anaesthetized, the mice was fixed in a warm three-axes holder. Before irradiation, the tumor site was disinfected with ethanol. The tumor was exposed to 1P or 2P light. Following the irradiation, the operative area was disinfection by iodophor.
Group 1: injected 7 (2 mg kg^−1, 50 μL) intravenously and irradiate under 800 nm laser (50 mW, 1 kHz, pulse width 35 fs, 5 s mm^−1) 1 h after injection; […]
(§2) The mice were anesthetized by injection of a 4% chloral hydrate aqueous solution (0.2 mL, 20 g^−1) before the treatment. The tumor volume and body weight were measured and recorded every 2 days. Tumor volume was calculated by the following formula:6 Volume=Length×Width^2/2.

[5] = In vivo tolerability: body weight, behaviour, H&E histology; design: species or system mouse; conditions: 2 mg kg^−1 i.v.
Procedure: as §2
The tumor and all major organs (including the heart, liver, spleen, lung, kidney, brain, intestine, and blood) were collected and a slice of each one was fixated with 4% paraformaldehyde. The obtained slices were stained with hematoxylin and eosin. The histological images were taken with a Carl Zeiss Axio Imager Z2 microscope.

[6] = read-out: IC50 540 nm (40 min, 9.5 J cm-2), RPE-1, 540 nm
[7] = read-out: IC50 dark, RPE-1, dark

SMILES	Singlet oxygen quantum yield, Indirect 450 nm CH3CN [1] [%]	Singlet oxygen quantum yield, Indirect 450 nm PBS [1] [%]	Singlet oxygen quantum yield, Indirect 540 nm CH3CN [1] [%]	Singlet oxygen quantum yield, Indirect 540 nm PBS [1] [%]	PI (480 nm) [2]	PI (540 nm) [2]	IC50 [2, 6] [µM]	IC50 [2, 7] [µM]	also measured
CN(C)c1ccc(/C=C/c2ccnc(-c3cc(/C=C/c4ccc(N(C)C)cc4)ccn3)c2)cc1.CN(C)c1ccc(/C=C/c2ccnc(-c3cc(/C=C/c4ccc(N(C)C)cc4)ccn3)c2)cc1.CN(C)c1ccc(/C=C/c2ccnc(-c3cc(/C=C/c4ccc(N(C)C)cc4)ccn3)c2)cc1.F[P-](F)(F)(F)(F)F.F[P-](F)(F)(F)(F)F.[Ru+2] [compound 2, [Ru((E,E′)-4,4′-Bis[p-(N,N-dimethylamino)styryl]-2,2′-bipyridine)3][PF6]2]	25	3	16	1	> 2.6	> 2.0	49	> 100	effect of irradiation on the molecular structure (NMR) (Photobleaching by NMR): decomposition of the compound
COc1ccc(/C=C/c2ccnc(-c3cc(/C=C/c4ccc(OC)cc4)ccn3)c2)cc1.F[P-](F)(F)(F)(F)F.F[P-](F)(F)(F)(F)F.[Ru+2].c1ccc(-c2ccccn2)nc1.c1ccc(-c2ccccn2)nc1 [compound 7, [Ru(2,2′-bipyridine)2((E,E′)-4,4′-Bis[p-methoxystyryl]-2,2′-bipyridine)][PF6]2]	77	11	68	10	> 32.3	> 11.9	8.4	> 100	Singlet oxygen quantum yield in acetonitrile (range over methods and wavelengths) ([1]; acetonitrile, 450 and 540 nm, direct and indirect): 68–77%; Singlet oxygen quantum yield in aqueous solution (range over wavelengths) ([1]; aqueous solution, 450 and 540 nm): 10–11%; IC50 (HeLa MCTS; 1P 500 nm, read-out: IC50 1P irradiation (500 nm, 10 J cm-2)): > 6.8 µM and 6.8 µM; IC50 (HeLa MCTS; 2P 800 nm, section interval 5 μm, read-out: IC50 2P irradiation (800 nm, 10 J cm-2)): > 1.4 µM and 1.4 µM; PI (1P irradiation) (HeLa MCTS; dark vs 500 nm): > 44 and > 44.1; PI (2P irradiation) (HeLa MCTS; dark vs 800 nm): > 250 and > 214.3; IC50 (HeLa MCTS; dark, read-out: IC50 dark): > 300 µM; time until absorbed from the blood stream ([3]; 2 mg kg^−1 i.v. tail injection): ≤ 1 h; organ accumulation (Ru content) ([3]; 2 mg kg^−1 i.v.): high accumulation in the intestine and some accumulation in the tumor; tumor growth after one PDT treatment ([4]; 1P (500 nm, 36 J cm^−2) or 2P (800 nm, 50 mW) irradiation 1 h after injection, 80 mm^3 tumor): drastically shrank until they were nearly eradicated; tumor growth without irradiation ([4]; dark): kept growing; histology of all other organs (H&E) ([5]; exposed to light): did not show any significant effect; histology of tumor tissue (H&E) ([5]; exposed to light): pathological alterations caused by the PDT treatment; behaviour of treated mice ([5]; nude mice): behaved normally, without signs of pain, stress or discomfort; body weight of treated mice ([5]; nude mice): did not lose or gain weight
